What is called IC50 is the midpoint of a concentration-inhibition curve. Broadly, the Kd is a measure of binding affinity in units of concentration. What is called Km is the concentration of substrate that gives half-maximal velocity. Usually Vmax stands for the top rate of the reaction or transport when substrate is in excess.

Substitutions are numbered along the chain they refer to.

The results in this text go back to ChEMBL document CHEMBL1154526, “Novel non-active site inhibitor of Cryptosporidium hominis TS-DHFR identified by a virtual screen” (Bioorg Med Chem Lett, 2009).

Assay [1] in a line: Inhibition of Cryptosporidium hominis TS-DHFR by spectroscopic assay.
A short description of assay [2]: Binding affinity to Cryptosporidium hominis TS-DHFR by burst amplitude assay.
The test system of assay [3] is Cryptosporidium hominis. The settings on record: 200 uM.
Description: Activity at Cryptosporidium hominis DHFR at 200 uM using NADPH substrate by steady state competition assay
Assay [4] deals with T1, Bifunctional dihydrofolate reductase-thymidylate synthase (Toxoplasma gondii, UniProt Q07422).
T1 sequence (Q07422 whole entry): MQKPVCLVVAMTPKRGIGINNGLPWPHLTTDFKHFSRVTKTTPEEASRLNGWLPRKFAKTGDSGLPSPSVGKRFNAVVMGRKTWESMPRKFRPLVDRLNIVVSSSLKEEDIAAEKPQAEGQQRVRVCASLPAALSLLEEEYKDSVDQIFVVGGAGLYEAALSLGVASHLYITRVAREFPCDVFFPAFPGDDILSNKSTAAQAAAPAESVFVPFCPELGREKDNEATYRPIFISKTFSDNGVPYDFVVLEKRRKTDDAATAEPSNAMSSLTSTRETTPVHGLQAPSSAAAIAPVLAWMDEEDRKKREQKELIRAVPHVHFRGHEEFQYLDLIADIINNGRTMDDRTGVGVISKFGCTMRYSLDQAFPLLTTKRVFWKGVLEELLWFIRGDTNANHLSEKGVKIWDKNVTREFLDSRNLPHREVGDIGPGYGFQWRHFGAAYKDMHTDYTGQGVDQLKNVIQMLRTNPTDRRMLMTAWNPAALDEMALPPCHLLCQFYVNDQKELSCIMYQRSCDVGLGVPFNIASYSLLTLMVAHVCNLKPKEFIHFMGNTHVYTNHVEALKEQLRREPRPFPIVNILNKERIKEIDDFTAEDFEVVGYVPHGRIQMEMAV
Put plainly: Inhibition of Toxoplasma gondii TS-DHFR.

Assay [5] relates to Cryptosporidium hominis. The settings on record: 200 uM. The source holds these as a separate data set.
Description: Activity at Cryptosporidium hominis DHFR at 200 uM using dihydrofolate substrate by steady state competition assay
Assay [6] addresses T2, Dihydrofolate reductase (Homo sapiens, UniProt P00374).
T2 sequence (P00374 whole entry): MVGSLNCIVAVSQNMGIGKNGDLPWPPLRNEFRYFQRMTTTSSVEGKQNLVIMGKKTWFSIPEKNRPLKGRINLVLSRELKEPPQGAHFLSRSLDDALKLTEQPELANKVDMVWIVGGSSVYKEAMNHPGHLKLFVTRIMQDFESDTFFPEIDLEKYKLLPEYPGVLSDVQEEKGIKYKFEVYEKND
Put plainly: Inhibition of human DHFR.

Assay [7] concerns T3, Dihydrofolate reductase (Cryptosporidium hominis), Q27552 [D201A].
T3 sequence (whole entry): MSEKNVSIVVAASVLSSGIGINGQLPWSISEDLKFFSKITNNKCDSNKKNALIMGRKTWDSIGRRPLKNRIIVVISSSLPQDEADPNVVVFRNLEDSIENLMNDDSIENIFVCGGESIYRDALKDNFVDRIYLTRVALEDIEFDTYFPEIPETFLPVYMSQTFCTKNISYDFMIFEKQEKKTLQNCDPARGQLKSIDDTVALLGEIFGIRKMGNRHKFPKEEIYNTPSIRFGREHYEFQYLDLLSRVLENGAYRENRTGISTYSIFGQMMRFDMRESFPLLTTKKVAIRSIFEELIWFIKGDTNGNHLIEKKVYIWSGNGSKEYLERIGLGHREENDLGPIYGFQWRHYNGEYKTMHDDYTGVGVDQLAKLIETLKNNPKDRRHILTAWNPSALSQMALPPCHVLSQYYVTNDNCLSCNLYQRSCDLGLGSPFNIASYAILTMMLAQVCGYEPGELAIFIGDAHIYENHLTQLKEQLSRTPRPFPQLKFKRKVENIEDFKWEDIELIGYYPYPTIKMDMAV
Briefly: Inhibition of Cryptosporidium hominis DHFR D201A mutant. Further details: scale not given: the % may be the effect or the level left.

In assay [8] the test system is T4, Dihydrofolate reductase (Cryptosporidium hominis), Q27552 [R190G].
T4 sequence (whole entry): T3 sequence (whole entry) with R190G, A201D
Briefly: Inhibition of Cryptosporidium hominis DHFR R190G mutant. On the set-up: scale not given: the % may be the effect or the level left.

Assay [9] in a line: Inhibition of Cryptosporidium hominis 80 to 250 nM TS-DHFR by spectroscopic assay.
The target in assay [10] is Thymidylate synthase (Homo sapiens, UniProt P04818). Put plainly: Inhibition of human thymidylate synthase.
Sequence of Thymidylate synthase (P04818 whole entry): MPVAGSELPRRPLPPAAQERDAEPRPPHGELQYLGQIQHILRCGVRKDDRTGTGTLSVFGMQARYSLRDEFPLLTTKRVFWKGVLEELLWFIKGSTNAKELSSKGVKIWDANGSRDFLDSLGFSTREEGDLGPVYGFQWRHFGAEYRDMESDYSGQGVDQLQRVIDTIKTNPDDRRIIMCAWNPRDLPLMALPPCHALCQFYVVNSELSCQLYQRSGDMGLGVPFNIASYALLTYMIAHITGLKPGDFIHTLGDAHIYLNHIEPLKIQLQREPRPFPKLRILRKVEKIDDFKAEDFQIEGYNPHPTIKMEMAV

`COC1=C(N)C(=O)c2nc(-c3nc(C(=O)O)c(C)c(-c4ccc(OC)c(OC)c4O)c3N)ccc2C1=O` [STREPTONIGRIN] displayed an IC50 in assay [1] of 80 µM.
Same read-out and setting: with `CC(=O)N1CCN(c2ccc(OCC3COC(Cn4ccnc4)(c4ccc(Cl)cc4Cl)O3)cc2)CC1` (configuration not stated) [KETOCONAZOLE] the figure was greater than 500 µM; with `C[C@H]1O[C@@H](O[C@H]2[C@@H](O)C[C@H](O[C@H]3[C@@H](O)C[C@H](O[C@H]4CC[C@@]5(C)[C@H](CC[C@@H]6[C@@H]5C[C@@H](O)[C@]5(C)[C@@H](C7=CC(=O)OC7)CC[C@]65O)C4)O[C@@H]3C)O[C@@H]2C)C[C@H](O)[C@@H]1O` [DIGOXIN], greater than 500 µM.
Same read-out and setting: the value for `CC(=O)N[C@@H]1[C@@H](O)[C@H](O[C@@H]2O[C@H](CO)[C@@H](O)[C@H](O)[C@H]2NC(C)=O)[C@@H](CO)O[C@H]1O` [CHITODEXTRIN] was greater than 500 µM; that for `COc1cccc2c1C(=O)C1=C(C2=O)C(O)C2=C(C1O)[C@@H](C[C@@H]1C[C@H](N)[C@@H](O)[C@H](C)O1)C[C@@](O)(/C(C)=N/NC(=O)c1ccccc1)C2` (some centres not stated) [RUBIDAZONE] was greater than 500 µM.
`Cc1cc2nc3c(=O)[nH]c(=O)nc-3n(C[C@H](O)[C@H](O)[C@H](O)COP(=O)(O)O)c2cc1C` [RIBOFLAVIN 5'-PHOSPHATE] returned a Kd in assay [2] of 48 µM. Besides, the Km in [3] worked out at 3 µM; in assay [5] it was 7.2 µM. Moreover, the Vmax in assay [3] is 1.77 µmol/min; in assay [5], 1.8 µmol/min. In addition, the IC50 in assay [4] is greater than 500 µM; in [6], 325 µM; in assay [1] it was 55 µM; in assay [9], 55 µM; in [10] it was greater than 500 µM. The Activity was determined as 10% in assay [7] and 20% in [8].
